Laboratory results: the CheMixHub viscosity set

Assay: xn = mol fraction of the nth substance listed

NC=O + CO
Settings | viscosity [mPa·s]
298.15 K, 100 kPa, x1 = 0.04242 | 0.594
298.15 K, 100 kPa, x1 = 0.1098 | 0.672
298.15 K, 100 kPa, x1 = 0.1552 | 0.728
298.15 K, 100 kPa, x1 = 0.1966 | 0.784
298.15 K, 100 kPa, x1 = 0.2342 | 0.843
298.15 K, 100 kPa, x1 = 0.3571 | 1.06
298.15 K, 100 kPa, x1 = 0.4211 | 1.2
298.15 K, 100 kPa, x1 = 0.4775 | 1.33
298.15 K, 100 kPa, x1 = 0.5097 | 1.42
298.15 K, 100 kPa, x1 = 0.5776 | 1.6
298.15 K, 100 kPa, x1 = 0.6744 | 1.9
298.15 K, 100 kPa, x1 = 0.7135 | 2.03
298.15 K, 100 kPa, x1 = 0.8191 | 2.45
298.15 K, 100 kPa, x1 = 0.8522 | 2.6
298.15 K, 100 kPa, x1 = 0.9099 | 2.86
298.15 K, 101 kPa, x1 = 0.1 | 0.746
298.15 K, 101 kPa, x1 = 0.2 | 0.861
298.15 K, 101 kPa, x1 = 0.3 | 1.055
298.15 K, 101 kPa, x1 = 0.3966 | 1.247
298.15 K, 101 kPa, x1 = 0.4978 | 1.484
298.15 K, 101 kPa, x1 = 0.6 | 1.749
298.15 K, 101 kPa, x1 = 0.7 | 2.067
298.15 K, 101 kPa, x1 = 0.7988 | 2.431
298.15 K, 101 kPa, x1 = 0.902 | 2.874
303.15 K, 101.3 kPa, x1 = 0.0714 | 0.55
303.15 K, 101.3 kPa, x1 = 0.1586 | 0.63
303.15 K, 101.3 kPa, x1 = 0.2422 | 0.74
303.15 K, 101.3 kPa, x1 = 0.32 | 0.85
303.15 K, 101.3 kPa, x1 = 0.3836 | 0.95
303.15 K, 101.3 kPa, x1 = 0.5273 | 1.2
303.15 K, 101.3 kPa, x1 = 0.5975 | 1.4
303.15 K, 101.3 kPa, x1 = 0.6822 | 1.6
303.15 K, 101.3 kPa, x1 = 0.7619 | 1.8
303.15 K, 101.3 kPa, x1 = 0.8279 | 2
303.15 K, 101.3 kPa, x1 = 0.917 | 2.3
308.15 K, 101.3 kPa, x1 = 0.0714 | 0.51
308.15 K, 101.3 kPa, x1 = 0.1586 | 0.59
308.15 K, 101.3 kPa, x1 = 0.2422 | 0.68
308.15 K, 101.3 kPa, x1 = 0.32 | 0.78
308.15 K, 101.3 kPa, x1 = 0.3836 | 0.87
308.15 K, 101.3 kPa, x1 = 0.5273 | 1.1
308.15 K, 101.3 kPa, x1 = 0.5975 | 1.2
308.15 K, 101.3 kPa, x1 = 0.6822 | 1.4
308.15 K, 101.3 kPa, x1 = 0.7619 | 1.6
308.15 K, 101.3 kPa, x1 = 0.8279 | 1.8
308.15 K, 101.3 kPa, x1 = 0.917 | 2.1
313.15 K, 101 kPa, x1 = 0.1 | 0.584
313.15 K, 101 kPa, x1 = 0.2 | 0.685
313.15 K, 101 kPa, x1 = 0.3 | 0.818
313.15 K, 101 kPa, x1 = 0.3966 | 0.995
313.15 K, 101 kPa, x1 = 0.4978 | 1.116
313.15 K, 101 kPa, x1 = 0.6 | 1.307
313.15 K, 101 kPa, x1 = 0.7 | 1.538
313.15 K, 101 kPa, x1 = 0.7988 | 1.78
313.15 K, 101 kPa, x1 = 0.902 | 2.09
313.15 K, 101.3 kPa, x1 = 0.0714 | 0.48
313.15 K, 101.3 kPa, x1 = 0.1586 | 0.54
313.15 K, 101.3 kPa, x1 = 0.2422 | 0.63
313.15 K, 101.3 kPa, x1 = 0.32 | 0.72
313.15 K, 101.3 kPa, x1 = 0.3836 | 0.8
313.15 K, 101.3 kPa, x1 = 0.5273 | 1.02
313.15 K, 101.3 kPa, x1 = 0.5975 | 1.1
313.15 K, 101.3 kPa, x1 = 0.6822 | 1.3
313.15 K, 101.3 kPa, x1 = 0.7619 | 1.4
313.15 K, 101.3 kPa, x1 = 0.8279 | 1.6
313.15 K, 101.3 kPa, x1 = 0.917 | 1.9
318.15 K, 101.3 kPa, x1 = 0.0714 | 0.46
318.15 K, 101.3 kPa, x1 = 0.1586 | 0.51
318.15 K, 101.3 kPa, x1 = 0.2422 | 0.58
318.15 K, 101.3 kPa, x1 = 0.32 | 0.67
318.15 K, 101.3 kPa, x1 = 0.3836 | 0.73
318.15 K, 101.3 kPa, x1 = 0.5273 | 0.92
318.15 K, 101.3 kPa, x1 = 0.5975 | 1.01
318.15 K, 101.3 kPa, x1 = 0.6822 | 1.1
318.15 K, 101.3 kPa, x1 = 0.7619 | 1.3
318.15 K, 101.3 kPa, x1 = 0.8279 | 1.4
318.15 K, 101.3 kPa, x1 = 0.917 | 1.6
323.15 K, 101.3 kPa, x1 = 0.0714 | 0.42
323.15 K, 101.3 kPa, x1 = 0.1586 | 0.47
323.15 K, 101.3 kPa, x1 = 0.2422 | 0.54
323.15 K, 101.3 kPa, x1 = 0.32 | 0.6
323.15 K, 101.3 kPa, x1 = 0.3836 | 0.66
323.15 K, 101.3 kPa, x1 = 0.5273 | 0.8
323.15 K, 101.3 kPa, x1 = 0.5975 | 0.86
323.15 K, 101.3 kPa, x1 = 0.6822 | 0.96
323.15 K, 101.3 kPa, x1 = 0.7619 | 1.07
323.15 K, 101.3 kPa, x1 = 0.8279 | 1.2
323.15 K, 101.3 kPa, x1 = 0.917 | 1.3

NC=O + OCCO
viscosity [mPa·s]
Settings | 293.15 K | 298.15 K | 303.15 K | 308.15 K | 313.15 K | 318.15 K
100 kPa, x1 = 0.1003 | 16.54 | 13.52 | 11.1 | – | – | –
100 kPa, x1 = 0.2002 | 13.55 | 10.99 | 9.12 | – | – | –
100 kPa, x1 = 0.299 | 11.22 | 8.878 | 7.232 | – | – | –
100 kPa, x1 = 0.3975 | 9.55 | 7.61 | 6.151 | – | – | –
100 kPa, x1 = 0.5027 | 7.99 | 6.541 | 5.273 | – | – | –
100 kPa, x1 = 0.6014 | 6.85 | 5.592 | 4.603 | – | – | –
100 kPa, x1 = 0.7027 | 5.827 | 4.71 | 3.99 | – | – | –
100 kPa, x1 = 0.7999 | 4.96 | 4.15 | 3.647 | – | – | –
100 kPa, x1 = 0.9014 | 4.413 | 3.817 | 3.402 | – | – | –
101 kPa, x1 = 0.0612 | 17.53 | 14.25 | 11.64 | 9.225 | 7.801 | 6.584
101 kPa, x1 = 0.1204 | 15.35 | 12.26 | 9.875 | 7.684 | 6.506 | 5.505
101 kPa, x1 = 0.1859 | 13.53 | 10.7 | 8.482 | 6.488 | 5.384 | 4.554
101 kPa, x1 = 0.3302 | 10.35 | 8.058 | 6.301 | 4.664 | 3.8 | 3.156
101 kPa, x1 = 0.4517 | 8.301 | 6.445 | 5.002 | 3.702 | 3.055 | 2.554
101 kPa, x1 = 0.5643 | 6.692 | 5.306 | 4.172 | 3.206 | 2.716 | 2.379
101 kPa, x1 = 0.6596 | 5.526 | 4.526 | 3.708 | 2.947 | 2.556 | 2.322
101 kPa, x1 = 0.7454 | 4.685 | 4.003 | 3.403 | 2.808 | 2.476 | 2.292
101 kPa, x1 = 0.8195 | 4.186 | 3.721 | 3.234 | 2.753 | 2.45 | 2.271
101 kPa, x1 = 0.8883 | 3.908 | 3.526 | 3.126 | 2.727 | 2.438 | 2.251
101 kPa, x1 = 0.9491 | 3.714 | 3.39 | 3.025 | 2.692 | 2.425 | 2.236
101 kPa, x2 = 0.0761 | – | – | – | 2.392 | – | –
101 kPa, x2 = 0.1538 | – | – | – | 2.439 | – | –
101 kPa, x2 = 0.2311 | – | – | – | 2.487 | – | –
101 kPa, x2 = 0.3245 | – | – | – | 2.636 | – | –
101 kPa, x2 = 0.4125 | – | – | – | 2.996 | – | –
101 kPa, x2 = 0.5236 | – | – | – | 4.026 | – | –
101 kPa, x2 = 0.6337 | – | – | – | 5.164 | – | –
101 kPa, x2 = 0.7468 | – | – | – | 6.594 | – | –
101 kPa, x2 = 0.8596 | – | – | – | 8.193 | – | –

OCCCO + CS(C)=O
viscosity [mPa·s], 101 kPa
Settings | 293.15 K | 298.15 K | 303.15 K | 308.15 K | 313.15 K | 318.15 K
x1 = 0.0513 | 2.47 | 2.13 | 2.03 | 1.84 | 1.7 | 1.61
x1 = 0.1024 | 2.88 | 2.59 | 2.32 | 2.09 | 1.89 | 1.78
x1 = 0.1534 | 3.26 | 2.95 | 2.63 | 2.35 | 2.14 | 2
x1 = 0.2043 | 3.74 | 3.35 | 2.99 | 2.67 | 2.4 | 2.24
x1 = 0.255 | 4.29 | 3.84 | 3.41 | 3.02 | 2.71 | 2.41
x1 = 0.3056 | 4.96 | 4.32 | 3.8 | 3.43 | 3.09 | –
x1 = 0.356 | 5.73 | 5.04 | 4.44 | 3.87 | 3.47 | –
x1 = 0.4064 | 6.64 | 5.81 | 5.05 | 4.42 | 3.92 | –
x1 = 0.4566 | 7.69 | 6.73 | 5.82 | 5.05 | 4.46 | –
x1 = 0.5066 | 9 | 7.73 | 6.65 | 5.81 | 5.08 | –
x1 = 0.5565 | 10.6 | 9.09 | 7.76 | 6.67 | 5.81 | –
x1 = 0.6063 | 12.5 | 10.6 | 9.02 | 7.72 | 6.7 | –
x1 = 0.6556 | 14.7 | 12.5 | 10.6 | 8.96 | 7.67 | –
x1 = 0.7055 | 17.6 | 14.8 | 12.4 | 10.4 | 8.88 | –
x1 = 0.7549 | 21 | 17.6 | 14.6 | 12.2 | 10.3 | –
x1 = 0.8042 | 25.2 | 21 | 17.3 | 14.3 | 12 | –
x1 = 0.8533 | 30.4 | 25 | 20.5 | 16.8 | 14 | –
x1 = 0.9024 | 36.5 | 29.8 | 24.2 | 19.7 | 16.4 | –
x1 = 0.9512 | 43.8 | 35.5 | 28.5 | 23.1 | 19 | –
